# System: NL-RLuc virus
# Assay: Inhibition of HIV replication (NL-RLuc luciferase reporter virus in MT-2 cells)
# Type: cell-based
# Settings: Human immunodeficiency virus 1, MT2, 120 h, read-out: Activity
# Text: Inhibition of HIV Replication:
# A recombinant NL-RLuc proviral clone was constructed in which a section of the nef gene from NL4-3 was replaced with the Renilla Luciferase gene. This virus is fully infectious and can undergo multiple cycles of replication in cell culture. In addition, the luciferous reporter provides a simple and easy method for quantitating the extent of virus growth and consequently, the antiviral activity of test compounds. The plasmid pNLRLuc contains the proviral NL-Rluc DNA cloned into pUC 18 at the PvuII site. The NL-RLuc virus was prepared by transfection of 293T cells with the plasmid pNLRLuc. Transfections were performed using the LipofectAMINE PLUS kit from Invitrogen (Carlsbad, Calif.) according to the manufacturer and the virus generated was titered in MT-2 cells. For susceptibility analyses, the titrated virus was used to infect MT-2 cells in the presence of compound, and after 5 days of incubation, cells were processed and quantitated for virus growth by the amount of expressed luciferase. Assay media was RPMI 1640 supplemented with 10% heat inactivated fetal bovine serum (FBS), 100 units/ml penicillin G/100 units/ml streptomycin, 10 mM HEPES buffer pH 7.55 and 2 mM L-glutamine. The results from at least 2 experiments were used to calculate the EC50 values. Luciferase was quantitated using the Dual Luciferase kit from Promega (Madison, Wis.). Susceptibility of viruses to compounds was determined by incubation in the presence of serial dilutions of the compound. The 50% effective concentration (EC50) was calculated by using the exponential form of the median effect equation where (Fa)=1/[1+(ED50/drug conc.)^m](Johnson V A, Byington R T. Infectivity Assay. In Techniques in HIV Research. ed. Aldovini A, Walker B D. 71-76. New York: Stockton Press.1990). Activity equal to A refers to a compound having an EC50≤100 nM, while B and C denote compounds having an EC50 between 100 nM and 1 uM (B) or >1 uM (C).
row,SMILES,EC50 [µM]
1,"Cc1nc(CN2CCOCC2)c(-c2ccc(OCCc3ccc(F)cc3)cc2)c(N2CCC3(CCC3)CC2)c1[C@H](OC(C)(C)C)C(=O)O [Example 54, (S)-2-(tert-Butoxy)-2-(5-(4-(4-fluorophenethoxy)phenyl)-2-methyl-6-(morpholinomethyl)-4-(7-azaspiro[3.5]nonan-7-yl)pyridin-3-yl)acetic acid]",< 0.1
2,"Cc1nc(C)c([C@H](OC(C)(C)C)C(=O)O)c(N2CCC3(CCNC3)CC2)c1-c1ccc(OCCc2ccc(F)cc2)cc1 [Example 68, (S)-2-(tert-Butoxy)-2-(5-(4-(4-fluorophenethoxy)phenyl)-2,6-dimethyl-4-(2,8-diazaspiro[4.5]decan-8-yl)pyridin-3-yl)acetic acid]",0.1 to 1
3,"Cc1nc(C)c([C@H](OC(C)(C)C)C(=O)O)c(N2CCC3(CCCCC3)C2)c1-c1ccc(C(=O)NCc2ccccc2)cc1 [Example 63, (S)-2-(5-(4-(Benzylcarbamoyl)phenyl)-2,6-dimethyl-4-(2-azaspiro[4.5]decan-2-yl)pyridin-3-yl)-2-(tert-butoxy)acetic acid]",< 0.1
4,"Cc1nc(CN(C)CC2CCCCC2)c(-c2ccc(OCCc3ccc(F)cc3)cc2)c(N2CCC3(CCC3)CC2)c1[C@H](OC(C)(C)C)C(=O)O [Example 59, (S)-2-(tert-Butoxy)-2-(6-(((cyclohexylmethyl)(methyl)amino)methyl)-5-(4-(4-fluorophenethoxy)phenyl)-2-methyl-4-(7-azaspiro[3.5]nonan-7-yl)pyridin-3-yl)acetic acid]",< 0.1
5,"Cc1nc(CNCC2CCCCC2)c(-c2ccc(OCCc3ccc(F)cc3)cc2)c(N2CCC3(CCC3)CC2)c1[C@H](OC(C)(C)C)C(=O)O [Example 56, (S)-2-(tert-Butoxy)-2-(6-(((cyclohexylmethyl)amino)methyl)-5-(4-(4-fluorophenethoxy)phenyl)-2-methyl-4-(7-azaspiro[3.5]nonan-7-yl)pyridin-3-yl)acetic acid]",< 0.1
6,"Cc1nc(CN2CCC3(CCC3)CC2)c(-c2ccc(OCCc3ccc(F)cc3)cc2)c(N2CCC3(CCC3)CC2)c1[C@H](OC(C)(C)C)C(=O)O [Example 57, (S)-2-(6-(7-Azaspiro[3.5]nonan-7-ylmethyl)-5-(4-(4-fluorophenethoxy)phenyl)-2-methyl-4-(7-azaspiro[3.5]nonan-7-yl)pyridin-3-yl)-2-(tert-butoxy)acetic acid]",< 0.1
7,"Cc1nc(C)c([C@H](OC(C)(C)C)C(=O)O)c(N2CC3CC3C2)c1-c1ccc(C(=O)NCc2ccccc2)cc1 (stereo partly drawn) [Example 7, (2S)-2-(5-(4-(Benzylcarbamoyl)phenyl)-4-(3-azabicyclo[3.1.0]hexan-3-yl)-2,6-dimethylpyridin-3-yl)-2-(tert-butoxy)acetic acid]",0.1 to 1
8,"CCOCCOCc1nc(C)c([C@H](OC(C)(C)C)C(=O)O)c(N2CCC3(CCC3)CC2)c1-c1ccc(OCCc2ccc(F)cc2)cc1 [Example 49, (S)-2-(tert-Butoxy)-2-(6-((2-ethoxyethoxy)methyl)-5-(4-(4-fluoro-phenethoxy)phenyl)-2-methyl-4-(7-azaspiro[3.5]nonan-7-yl)pyridin-3-yl)acetic acid]",< 0.1
9,"Cc1nc(COC2CCOCC2)c(-c2ccc(OCCc3ccc(F)cc3)cc2)c(N2CCC3(CCC3)CC2)c1[C@H](OC(C)(C)C)C(=O)O [Example 52, (S)-2-(tert-Butoxy)-2-(5-(4-(4-fluorophenethoxy)phenyl)-2-methyl-4-(7-azaspiro[3.5]nonan-7-yl)-6-(((tetrahydro-2H-pyran-4-yl)oxy)methyl)pyridin-3-yl)acetic acid]",< 0.1
10,"Cc1nc(C)c([C@H](OC(C)(C)C)C(=O)O)c(N2CCC3(CC2)CC3)c1-c1ccc(C(=O)NCc2ccccc2)cc1 [Example 17, (S)-2-(5-(4-(Benzylcarbamoyl)-phenyl)-2,6-dimethyl-4-(6-azaspiro[2.5]octan-6-yl)pyridin-3-yl)-2-(tert-butoxy)acetic acid]",< 0.1
11,"COCCN(C)Cc1nc(C)c([C@H](OC(C)(C)C)C(=O)O)c(N2CCC3(CCC3)CC2)c1-c1ccc(OCCc2ccc(F)cc2)cc1 [Example 43, (S)-2-(tert-Butoxy)-2-(5-(4-(4-fluorophenethoxy)phenyl)-6-(((2-methoxyethyl)(methyl)amino)methyl)-2-methyl-4-(7-azaspiro[3.5]nonan-7-yl)pyridin-3-yl)acetic acid]",< 0.1
12,"Cc1nc(C)c([C@H](OC(C)(C)C)C(=O)O)c(N2CCC3(CCNC3)CC2)c1-c1ccc(C(=O)NCc2ccccc2)cc1 [Example 69, (S)-2-(5-(4-(Benzylcarbamoyl)phenyl)-2,6-dimethyl-4-(2,8-diazaspiro[4.5]decan-8-yl)pyridin-3-yl)-2-(tert-butoxy)acetic acid]",> 1
13,"COc1cc(-c2c(C)nc(C)c([C@H](OC(C)(C)C)C(=O)O)c2N2CCC3(CCCC3)CC2)ccc1C(=O)NCc1ccccc1 [Example 25, (S)-2-(5-(4-(Benzylcarbamoyl)-3-methoxyphenyl)-2,6-dimethyl-4-(8-azaspiro[4.5]decan-8-yl)pyridin-3-yl)-2-(tert-butoxy)acetic acid]",< 0.1
14,"Cc1nc(CN(C)C2CCOCC2)c(-c2ccc(OCCc3ccc(F)cc3)cc2)c(N2CCC3(CCC3)CC2)c1[C@H](OC(C)(C)C)C(=O)O [Example 50, (S)-2-(tert-Butoxy)-2-(5-(4-(4-fluorophenethoxy)phenyl)-2-methyl-6-((methyl(tetrahydro-2H-pyran-4-yl)amino)methyl)-4-(7-azaspiro[3.5]nonan-7-yl)pyridin-3-yl)acetic acid]",< 0.1
15,"Cc1nc(C)c([C@H](OC(C)(C)C)C(=O)O)c(N2CCC3(CCCCC3)CC2)c1-c1ccc(C(=O)NCc2ccccc2)cc1 [Example 61, (S)-2-(5-(4-(Benzylcarbamoyl)phenyl)-2,6-dimethyl-4-(3-azaspiro[5.5]undecan-3-yl)pyridin-3-yl)-2-(tert-butoxy)acetic acid]",< 0.1
16,"Cc1cccc(F)c1CN1CCc2cc(-c3c(C)nc(C)c([C@H](OC(C)(C)C)C(=O)O)c3N3CCC4(CCC4)CC3)ccc2C1 [Example 34, (S)-2-(tert-Butoxy)-2-(5-(2-(2-fluoro-6-methylbenzyl)-1,2,3,4-tetrahydroisoquinolin-6-yl)-2,6-dimethyl-4-(7-azaspiro[3.5]nonan-7-yl)pyridin-3-yl)acetic acid]",< 0.1
17,"Cc1nc(C)c([C@H](OC(C)(C)C)C(=O)O)c(N2CCC3(CCOC3)CC2)c1-c1ccc(OCCc2ccc(F)cc2)cc1 [Example 67, (S)-2-(tert-Butoxy)-2-(5-(4-(4-fluorophenethoxy)phenyl)-2,6-dimethyl-4-(2-oxa-8-azaspiro[4.5]decan-8-yl)pyridin-3-yl)acetic acid]",< 0.1
18,"Cc1nc(C)c([C@H](OC(C)(C)C)C(=O)O)c(N2CCC3(CCCCCC3)C2)c1-c1ccc(OCCc2ccc(F)cc2)cc1 [Example 64, (S)-2-(tert-Butoxy)-2-(5-(4-(4-fluorophenethoxy)phenyl)-2,6-dimethyl-4-(2-azaspiro[4.6]undecan-2-yl)pyridin-3-yl)acetic acid]",< 0.1
19,"Cc1nc(COCC2COC2)c(-c2ccc(OCCc3ccc(F)cc3)cc2)c(N2CCC3(CCC3)CC2)c1[C@H](OC(C)(C)C)C(=O)O [Example 48, (S)-2-(tert-Butoxy)-2-(5-(4-(4-fluorophenethoxy)phenyl)-2-methyl-6-((oxetan-3-ylmethoxy)methyl)-4-(7-azaspiro[3.5]nonan-7-yl)pyridin-3-yl)acetic acid]",< 0.1
20,"Cc1nc(CN2CCCCC2)c(-c2ccc(OCCc3ccc(F)cc3)cc2)c(N2CCC3(CCC3)CC2)c1[C@H](OC(C)(C)C)C(=O)O [Example 53, (S)-2-(tert-Butoxy)-2-(5-(4-(4-fluorophenethoxy)phenyl)-2-methyl-6-(piperidin-1-ylmethyl)-4-(7-azaspiro[3.5]nonan-7-yl)pyridin-3-yl)acetic acid]",< 0.1
21,"Cc1nc(C)c([C@H](OC(C)(C)C)C(=O)O)c(N2CC[C@H]3CCCC[C@@H]3C2)c1-c1ccc(OCCc2ccc(F)cc2)cc1 [Example 12, (S)-2-(tert-Butoxy)-2-(5-(4-(4-fluorophenethoxy)phenyl)-2,6-dimethyl-4-((4aR,8aS)-octahydroisoquinolin-2(H)-yl)pyridin-3-yl)acetic acid]",< 0.1
22,"Cc1nc(C)c([C@H](OC(C)(C)C)C(=O)O)c(N2CC3C(C2)C3(C)C)c1-c1ccc(OCCc2ccc(F)cc2)cc1 (stereo partly drawn) [Example 8, (2S)-2-(tert-Butoxy)-2-(4-(6,6-dimethyl-3-azabicyclo[3.1.0]hexan-3-yl)-5-(4-(4-fluorophenethoxy)phenyl)-2,6-dimethyl-pyridin-3-yl)acetic acid]",< 0.1
23,"Cc1nc(C)c([C@H](OC(C)(C)C)C(=O)O)c(N2CCC3(CCC3)CC2)c1-c1ccc(OCCc2ccc(F)cc2)cc1 [Example 27, (S)-2-(tert-Butoxy)-2-(5-(4-(4-fluorophenethoxy)phenyl)-2,6-dimethyl-4-(7-azaspiro[3.5]nonan-7-yl)pyridin-3-yl)acetic acid]",< 0.1

# Same assay, conditions: Human immunodeficiency virus 1, MT2, 120 h, read-out: EC50 μM
row,SMILES,EC50 [µM]
1,"Cc1nc(C)c([C@H](OC(C)(C)C)C(=O)O)c(N2CCC3(CCNC3)CC2)c1-c1ccc(OCCc2ccc(F)cc2)cc1 [Example 68, (S)-2-(tert-Butoxy)-2-(5-(4-(4-fluorophenethoxy)phenyl)-2,6-dimethyl-4-(2,8-diazaspiro[4.5]decan-8-yl)pyridin-3-yl)acetic acid]",0.731
2,"Cc1nc(C)c([C@H](OC(C)(C)C)C(=O)O)c(N2CC3CC3C2)c1-c1ccc(C(=O)NCc2ccccc2)cc1 (stereo partly drawn) [Example 7, (2S)-2-(5-(4-(Benzylcarbamoyl)phenyl)-4-(3-azabicyclo[3.1.0]hexan-3-yl)-2,6-dimethylpyridin-3-yl)-2-(tert-butoxy)acetic acid]",0.651
3,"CCOCCOCc1nc(C)c([C@H](OC(C)(C)C)C(=O)O)c(N2CCC3(CCC3)CC2)c1-c1ccc(OCCc2ccc(F)cc2)cc1 [Example 49, (S)-2-(tert-Butoxy)-2-(6-((2-ethoxyethoxy)methyl)-5-(4-(4-fluoro-phenethoxy)phenyl)-2-methyl-4-(7-azaspiro[3.5]nonan-7-yl)pyridin-3-yl)acetic acid]",0.006
4,"Cc1nc(C)c([C@H](OC(C)(C)C)C(=O)O)c(N2CCC3(CCNC3)CC2)c1-c1ccc(C(=O)NCc2ccccc2)cc1 [Example 69, (S)-2-(5-(4-(Benzylcarbamoyl)phenyl)-2,6-dimethyl-4-(2,8-diazaspiro[4.5]decan-8-yl)pyridin-3-yl)-2-(tert-butoxy)acetic acid]",9.66
